Laboratory results taken from patent US20080221128A1, “Metalloprotease inhibitors containing a squaramide moiety” (priority 2007, published 2008).
Like-named read-outs stand apart in the source and are kept apart here.

Experiments:
Assay type in all cases: biochemical
[1] = biological target: T1, MMP-13 (Homo sapiens, UniProt P45452); assay: Assay for determining MMP-13 inhibition (fluorescent substrate); settings: catalytic domain of MMP-13
T1 construct: stock solution of catalytic domain of MMP-13 enzyme (produced by Alantos or commercially available from Invitek (Berlin), Cat.# 30100812); purchased Invitek (Berlin) 30100812
Experimental: The typical assay for MMP-13 activity is carried out in assay buffer comprised of 50 mM Tris, pH 7.5, 150 mM NaCl, 5 mM CaCl2 and 0.05% Brij-35. Different concentrations of tested compounds are prepared in assay buffer in 50 μL aliquots. 10 μL of a 50 nM stock solution of catalytic domain of MMP-13 enzyme (produced by Alantos or commercially available from Invitek (Berlin), Cat.# 30100812) is added to the compound solution. The mixture of enzyme and compound in assay buffer is thoroughly mixed and incubated for 10 min at room temperature. Upon the completion of incubation, the assay is started by addition of 40 μL of a 12.5 μM stock solution of MMP-13 fluorescent substrate (Calbiochem, Cat. No. 444235). The time-dependent increase in fluorescence is measured at the 320 nm excitation and 390 nm emission by automatic plate multireader. The IC50 values are calculated from the initial reaction rates.

[2] = biological target: T2, MMP-8 (Homo sapiens, UniProt P22894); assay: Assay for determining MMP-8 inhibition (fluorescent substrate); settings: activated MMP-8 enzyme; upper bound class
T2 construct: purchased Calbiochem 444229
T2 sequence (P22894 101-467): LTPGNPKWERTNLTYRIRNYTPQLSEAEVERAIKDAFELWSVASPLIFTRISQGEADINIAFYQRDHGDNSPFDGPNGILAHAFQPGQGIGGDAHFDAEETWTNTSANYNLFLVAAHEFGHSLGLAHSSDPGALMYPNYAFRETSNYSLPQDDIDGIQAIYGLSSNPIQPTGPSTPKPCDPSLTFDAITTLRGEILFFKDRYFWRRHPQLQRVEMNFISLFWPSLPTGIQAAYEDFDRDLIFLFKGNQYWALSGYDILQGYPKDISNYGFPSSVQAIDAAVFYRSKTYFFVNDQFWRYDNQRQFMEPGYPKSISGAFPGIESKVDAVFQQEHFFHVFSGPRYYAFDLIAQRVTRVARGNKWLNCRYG
Experimental: The typical assay for MMP-8 activity is carried out in assay buffer comprised of 50 mM Tris, pH 7.5, 150 mM NaCl, 5 mM CaCl2 and 0.05% Brij-35. Different concentrations of tested compounds are prepared in assay buffer in 50 μL aliquots. 10 μL of a 50 nM stock solution of activated MMP-8 enzyme (Calbiochem, Cat. No. 444229) is added to the compound solution. The mixture of enzyme and compound in assay buffer is thoroughly mixed and incubated for 10 min at 37° C. Upon the completion of incubation, the assay is started by addition of 40 μL of a 10 μM stock solution of OmniMMP fluorescent substrate (Biomol, Cat. No. P-126). The time-dependent increase in fluorescence is measured at the 320 nm excitation and 390 nm emission by an automatic plate multireader at 37° C. The IC50 values are calculated from the initial reaction rates.

[3] = biological target: T3, MMP-3 (Homo sapiens, UniProt P08254); assay: Assay for determining MMP-3 inhibition (fluorescent substrate); settings: catalytic domain of MMP-3
T3 construct: stock solution of the catalytic domain of MMP-3 enzyme (Biomol, Cat. No. SE-109); purchased Biomol SE-109
T3 sequence (P08254 100-272 limits assumed): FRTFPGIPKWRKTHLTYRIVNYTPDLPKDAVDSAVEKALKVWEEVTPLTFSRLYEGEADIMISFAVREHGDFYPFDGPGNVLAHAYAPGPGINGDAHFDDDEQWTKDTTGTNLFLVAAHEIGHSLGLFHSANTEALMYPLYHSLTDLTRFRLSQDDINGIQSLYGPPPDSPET
Experimental: The typical assay for MMP-3 activity is carried out in assay buffer comprised of 50 mM MES, pH 6.0, 10 mM CaCl2 and 0.05% Brij-35. Different concentrations of tested compounds are prepared in assay buffer in 50 μL aliquots. 10 μL of a […] stock solution of the catalytic domain of MMP-3 enzyme (Biomol, Cat. No. SE-109) is added to the compound solution. The mixture of enzyme and compound in assay buffer is thoroughly mixed and incubated for 10 min at room temperature. Upon the completion of incubation, the assay is started by addition of 40 μL of a 12.5 μM stock solution of NFF-3 fluorescent substrate (Calbiochem, Cat. No. 480-455). The time-dependent increase in fluorescence is measured at the 330 nm excitation and 390 nm emission by an automatic plate multireader. The IC50 values are calculated from the initial reaction rates.

[4] = upper bound class, read-out: MMP-13 inhibition activity (IC50 MMP-13)
[5] = upper bound class, read-out: MMP-3 inhibition activity (IC50 MMP-3)

| Compound | IC50 [1, 4] | IC50 [2] | IC50 [3, 5] | IC50 ([1]; range bounds printed with own units (nM to μM), read-out: MMP-13 inhibition activity (IC50 MMP-13), range) | IC50 ([3]; range bounds printed with own units (nM to μM), read-out: MMP-3 inhibition activity (IC50 MMP-3), range) |
| --- | --- | --- | --- | --- | --- |
| Nc1c(N2CCc3ccc(CNC(=O)c4nc5sc6c(c5c(=O)[nH]4)CCC4(C6)OCCO4)cc3C2)c(=O)c1=O [1/8] | < 100 nM | < 250 nM | < 250 nM |  |  |
| Nc1c(N2CCc3ccc(CNC(=O)c4ncc(-c5ccc(F)cc5)c(=O)[nH]4)cc3C2)c(=O)c1=O [Example 1] |  |  |  | 100 to 20000 nM | 250 to 20000 nM |
| Cc1nc(C(=O)NCc2ccc3c(c2)CN(c2c(N)c(=O)c2=O)CC3)[nH]c(=O)c1C [Example 1/2] | < 100 nM |  |  |  |  |
| Cc1csc2nc(C(=O)NCc3ccc4c(c3)CN(c3c(N)c(=O)c3=O)CC4)[nH]c(=O)c12 [Example 1/3] | < 100 nM | < 250 nM | < 250 nM |  |  |
